{"source": "patent US11351218B2", "about": "“Composition for preventing or treating glioblastoma comprising Platycodon grandiflorum A. De Candolle, Scutellaria baicalensis, Phellodendron amurense Ruprecht or Rubus coreanus” (University-Industry Cooperation Group of Kyung Hee …, priority 2019, dated 2022)", "type_in_all_cases": "cell-based, human", "key": {"U87MG and U373MG cells [1]": {"test_system": "U87MG and U373MG cells", "assay": "LysoTracker assay with GFP-LC3B (autophagosome-lysosome fusion) in GBM cells", "settings": "PD 10 μM, 24 hours", "excerpt": "[…] Then, cells were stained with LysoTracker (red) and DAPI (blue). The merged images show an overlap between GFP-LC3 and LysoTracker (yellow). The panels on the right are higher-magnification images of the boxed regions.\n(§1) Cultured cells seeded in plates with microscope coverslips were transfected with a pGFP-LC3B plasmid using Lipofectamine 3000 (Thermo Fisher Scientific) according to the manufacturer's instructions. After the transfection, the cells were fixed with 4% paraformaldehyde (PFA) in phosphate-buffered saline (PBS) at room temperature for 10 minutes. The images were examined under a laser confocal microscope (Zeiss, Oberkochen, Baden-Wurttemberg, Germany).\nTo stain acidic compartments, 50 nM LysoTrackerRedDND-99 (Thermo Fisher Scientific) was added to a medium at 37° C. with 5% CO2 for 30 minutes prior to fixation. The nuclei were labeled with 4,6-diamidino-2-phenylindole (DAPI, Sigma). The slides were finally mounted using a Faramount mounting medium (Dako, Glostrup, Denmark). The images were examined under a Zeiss laser confocal microscope.\nExperimental Result 11. PD Blocks Fusion of Autophagosomes with Lysosomes. Since p62 was accumulated in autophagosomes by PD treatment, it was speculated that PD may cause the lysosomal dysfunction like bafilomycin A1, which inhibits vacuolar H^+-ATPase (V-ATPase)-dependent lysosomal acidification and blocks autophagosome-lysosome fusion. Thus, the PD-treated cells with LysoTracker Red, which is a marker for acidic compartment including lysosomes was stained to examine the colocalization of GFP-LC3B."}, "[2]": {"test_system": "p-ULK1 (Ser757), p-S6K (Thr389), p-AKT (Ser473), p-JNK1, Beclin, ATG7", "assay": "Immunoblot of mTOR/MAPK and autophagosome assembly proteins in GBM cells", "settings": "PD 0-10 μM, 24 hours", "procedure": "FIGS. 10A to 10D show the results that PD-mediated autophagy inhibition is independent of mTOR and MAPK signaling pathways. FIGS. 10A to 10C show the results in which cells were treated with PD (0 μM, 0.5 μM, 1 μM, 5 μM, and 10 μM) for 24 hours. The immunoblot analyses for p-ULK1 (Ser757), ULK1, p-S6K (Thr389), p-AKT (Ser473), ERK2, P-ERK, p-JNK1, Beclin, and ATG7 were performed using lysates from GBMs. […] Total protein extracts were analyzed by immunoblot analyses for p-ERK, LC3B, and SQSTM1. GAPDH was used as an internal control.\nCells treated with the concentrations and materials described in FIGS. 1-3B, 7, 8, 10, 13, 16, 18, and 20 were lysed in buffer containing 20 mM Tris-HCl (pH 7.5), 150 mM NaCl, 1 mM EDTA, 1 mM Na2EDTA, 1 mM EGTA, 1% NP-40, 1% sodium deoxycholate, 1 mM Na3VO4, 1 mM MPI, 1 mM PMSF, and PI cocktails for 15 to 20 minutes on ice. Cell lysates were separated by SDS-PAGE and transferred to nitrocellulose membranes. Immunodetection was performed with the following primary antibodies: rabbit anti-LC3B, rabbit anti-cathepsin B, rabbit-anti GAPDH (Cell Signaling Technology, Danvers, Mass.), mouse anti-SQSTM1/p62, and goat anti-cathepsin D (Santa CruzKPL, Gaithersburg, Md., USA) were incubated at room temperature for 1 hour. The protein bands were detected with ECL western Blotting Substrate (Thermo Fisher Scientific, Waltham, Mass., USA).\nPrevious studies have shown that PD enhances autophagy via mTOR/MAPK pathway. In order to analyze the molecular mechanisms of PD-mediated autophagy in GBM cells, several regulatory components for autophagy were examined by immunoblot analysis. It is known that mTORC1 activation, measured by S6K phosphorylation, inhibits autophagy initiation by phosphorylating the ULK1 (Ser 757). […] Furthermore, as can be confirmed in FIG. 10A, altered phosphorylation of AKT, which is a positive regulator of mTORC1, was not observed in these cells. […] In order to assess a role of the ERK phosphorylation in autophagy regulation in PD-treated U373MG cells, PD98059, which is a inhibitor of MEK (i.e., an upstream activator of ERK), was added before PD treatment and the changes in LC3-II and p62 levels were examined by western blotting."}, "U87MG and U373MG cells [3]": {"test_system": "U87MG and U373MG cells", "assay": "BODIPY FL LDL uptake assay, GBM cells", "settings": "PD 10 μM 24 hours, BODIPY FL LDL 1 hour", "procedure": "Cells were treated with DMSO, PD (10 μM), or U18 (1 μM) for 24 hours and subsequently loaded with BODIPY™ FL LDL. BODIPY-LDL uptake was visualized by confocal microscopy. Nuclei were stained with DAPI (blue). Quantification shown on the right graph represents a relative fold change from three independent experiments±SD.\nCells seeded on coverslips were treated with the materials and then the culture medium was replaced with BODIPY™ FL LDL (Thermo Fisher Scientific) at a working concentration of 5 μg/mL in a medium. The cells were additionally incubated at 37° C. for 1 hour. The degree of LDL uptake was measured using a Zeiss laser confocal microscope.\nBased on the previous study results of the present inventors that PD increases cell surface LDLR expression and accumulate cholesterol within lysosomes, whether PD can increase the uptake of exogenous LDL was examined Cells pretreated with PD or U18666A were incubated with BODIPY FL-labeled LDL particles for 1 hour and the LDL uptake was observed by a confocal microscope. Upon analysis of these cells, it was observed that PD caused about a 6-fold increase in LDL uptake and it was a level similar to that detected in the U18666A-treated cells."}, "U87MG and U373MG cells [4]": {"test_system": "U87MG and U373MG cells", "assay": "Immunofluorescence of SQSTM1/p62 with GFP-LC3B in GBM cells", "settings": "PD 10 μM or BafA1 (100 μM), 24 hours", "procedure": "The cells expressing GFP-LC3B (green) were treated with DMSO, PD (10 μM), or BafA1 (100 μM) for 24 hours, followed by staining with an anti-SQSTM1 antibody (red) and DAPI (blue). The merged images (yellow) indicate co-localization between LC3 and p62. The panels on the right are higher-magnification images of the boxed regions.\nas §1\nCells treated with the materials were permeabilized with 0.01% Triton X-100 in PBS. After blocking the resulting cells in 2% bovine serum albumin (BSA) in PBS, they were incubated at 4° C. with a primary antibody against SQSTM1/p62 (Santa Cruz) overnight. The stained cells were incubated with an Alexa594-conjugated secondary antibody (Invitrogen, Calif., USA). The images were examined under a Zeiss laser confocal microscope."}}, "data": [{"smiles": "C[C@@H]1O[C@@H](O[C@H]2[C@H](OC(=O)[C@]34CCC(C)(C)C[C@H]3C3=CC[C@@H]5[C@@]6(C)C[C@H](O)[C@H](O[C@@H]7O[C@H](CO)[C@@H](O)[C@H](O)[C@H]7O)C(CO)(CO)[C@@H]6CC[C@@]5(C)[C@]3(C)C[C@H]4O)OC[C@H](O)[C@@H]2O)[C@H](O)[C@H](O)[C@H]1O[C@@H]1OC[C@@H](O)[C@H](O[C@@H]2OC[C@](O)(CO)[C@H]2O)[C@H]1O", "note": "[PD, platycodin D]", "values": [{"measurement": "lysosomal acidification (LysoTracker Red fluorescence)", "setting": "U87MG and U373MG cells [1]", "result": "does not affect lysosomal acidification"}, {"measurement": "colocalization of GFP-LC3B and LysoTracker Red staining", "setting": "U87MG and U373MG cells [1]; BafA1 100 nM, Rapa 1 μM", "result": "significant separation"}, {"measurement": "altered phosphorylation of AKT", "setting": "[2]", "result": "not observed"}, {"measurement": "phosphorylation levels of JNK vs control cells", "setting": "[2]", "result": "no significant difference"}, {"measurement": "phosphorylation of S6K and ULK1", "setting": "[2]", "result": "no alteration"}, {"measurement": "Beclin-1 and ATG7 protein levels", "setting": "[2]; both cells", "result": "no significant changes"}, {"measurement": "increase in LDL uptake", "setting": "U87MG and U373MG cells [3]", "result": "~6", "unit": "fold"}, {"measurement": "p62 staining and colocalization with GFP-LC3B puncta", "setting": "U87MG and U373MG cells [4]", "result": "increase"}]}]}
